Values joined by “and” are separate entries in the source; they are usually repeats but may differ in a detail not shown here. Identical values can stand only once. Like-named read-outs stand apart in the source and are kept apart here.
Assays:
galectin-1 [1] = molecular target: T1, galectin-1 (Homo sapiens, UniProt P09382); conditions: cited from earlier work
T1 construct: made in house

galectin-4C [2] = molecular target: T2, galectin-4C (Homo sapiens, UniProt P56470); conditions: cited from earlier work
T2 construct: made in house; host or cells: E. coli BL-21 (DE3)
T2 sequence (P56470 185-323): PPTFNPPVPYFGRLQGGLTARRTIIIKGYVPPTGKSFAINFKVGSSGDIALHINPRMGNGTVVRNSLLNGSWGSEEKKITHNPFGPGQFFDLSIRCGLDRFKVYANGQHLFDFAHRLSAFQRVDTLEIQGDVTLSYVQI

galectin-3 [3] = molecular target: T3, galectin-3 (Homo sapiens, UniProt P17931); conditions: cited from earlier work
T3 construct: made in house

galectin-3 [4] = molecular target: T3, galectin-3; experiment: competitive fluorescence polarization assay, galectin-3; conditions: Kd and SEM from 3–6 single point measurements, > values estimated, no apparent binding at highest concentration, read-out: Dissociation constants, Galectin-3
Procedure: (§1) Affinities of 1c–1z for galectin-1, -3, -4C, -4N, -7, -8C, -8N, -9C, and -9N were measured using an established fluorescence polarization assay[57] with reported probes and conditions.[19] […]
(§2) Fluorescence polarization experiments
(§3) Human galectin-11 and galectin-32 were expressed and purified as earlier described. Fluorescence polarization experiments were performed on a PheraStarFS plate reader with software PHERAstar Mars version 2.10 R3 (BMG, Offenburg, Germany). Specific experimental conditions were a galectin-1 concentration of 0.5 µM together with the fluorescent probe (3,3’-dideoxy-3-[4-(fluorescein-5-yl-carbonylaminomethyl)-1H-1,2,3-triazol-1-yl]-3’-(3,5-di-methoxybenzamido)-1,1’-sulfanediyl-di-β-D-galactopyranoside 1 concentration of 20 nM and a galectin-3 concentration of 0.2 µM together with the fluorescent probe (3,3’-dideoxy-3-[4-(fluorescein-5-yl-carbonylaminomethyl)-1H-1,2,3- […]
(§4) triazol-1-yl]-3’-(3,5-di-methoxybenzamido)-1,1’-sulfanediyl-di-β-D-galactopyranoside) concentration of 20 nM, respectively. Inhibitors were dissolved in dimethylsulfoxide (analytical grade) to a concentration of 20 mM, diluted with PBS to 3–6 different concentrations, and tested in duplicate twice for galectin affinity using a competitive fluorescence polarization assay as earlier described.3 The highest inhibitor concentrations tested were 1 mM due to solubility limitations at higher concentration. Dissociation constants average and SEM were calculated from two to eight single point measurements showing between 20–80% inhibition. […]

galectin-4C [5] = molecular target: T2, galectin-4C; experiment: competitive fluorescence polarization assay, galectin-4C; format: binding; conditions: for Kd: fluorescence polarization, x/y cells = only two data points revealed inhibition, both shown, > values estimated, no apparent binding at highest concentration, read-out: Dissociation constants, Galectin-4C
Procedure: Affinities of 1c–1z for galectin-1, -3, -4C, -4N, -7, -8C, -8N, -9C, and -9N were measured using an established fluorescence polarization assay[57] with reported probes and conditions.[19]
Recombinant human galectin-4 C-terminal carbohydrate recognition domain was expressed and purified as previously reported.[57,70] Briefly, BL-21 (DE3) E. coli cells containing galectin-4C (amino acid sequence 185–323) was expressed, lysed by sonication and purified by affinity chromatography on a lactosyl-Sepharose column. Galectin-4C protein was eluted using 50 mM β-lactose in PBS, pH 7.4. Galectin-4C was then further gel purified using a Superdex 200/60 column (GE Healthcare) previously equilibrated in PBS, pH 7.4. The peak fractions collected containing galectin-4C were pooled and concentrated to 6.5 mg mL^−1 using an AmiconUltra 3K molecular weight cut-off centrifugal concentrator (Millipore, Billerica, MA, USA) and used directly in crystallisation studies. […]
as §4

galectin-1 [6] = molecular target: T1, galectin-1; experiment: competitive fluorescence polarization assay, galectin-1; format: binding; conditions: for Kd: fluorescence polarization, Kd and SEM from 3–6 single point measurements, read-out: Dissociation constants, Galectin-1
Procedure: as §1, §2, §3, §4

galectin-4N = molecular target: T4, galectin-4N (Homo sapiens, UniProt P56470); experiment: competitive fluorescence polarization assay, galectin-4N; format: binding; conditions: Kd and SEM from 3–6 single point measurements, read-out: Dissociation constants, Galectin-4N
T4 construct: called “N” for the N-terminal CRD and “C” for the C-terminal
T4 sequence (P56470 19-150 limits assumed): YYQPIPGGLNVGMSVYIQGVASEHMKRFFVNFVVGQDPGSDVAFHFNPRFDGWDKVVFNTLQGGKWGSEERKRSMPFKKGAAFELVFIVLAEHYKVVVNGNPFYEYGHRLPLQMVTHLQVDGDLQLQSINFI
Procedure: as §1, §4

[7] = Table 1 reference compounds, read-out: Dissociation constants, Galectin-1
[8] = Chart 1, known C1-galactosyl inhibitors, read-out: affinity, Galectin-4C
[9] = Table 1 reference compounds, read-out: Dissociation constants, Galectin-3
[10] = Chart 1, known C1-galactosyl inhibitors, read-out: affinity, Galectin-1
[11] = Chart 1, known C1-galactosyl inhibitors, read-out: affinity, Galectin-3

T1 sequence (P09382 whole entry): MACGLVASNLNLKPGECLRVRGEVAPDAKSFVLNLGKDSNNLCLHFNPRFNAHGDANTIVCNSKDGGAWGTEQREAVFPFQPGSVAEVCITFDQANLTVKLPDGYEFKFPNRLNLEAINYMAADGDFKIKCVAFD
T3 sequence (P17931 whole entry): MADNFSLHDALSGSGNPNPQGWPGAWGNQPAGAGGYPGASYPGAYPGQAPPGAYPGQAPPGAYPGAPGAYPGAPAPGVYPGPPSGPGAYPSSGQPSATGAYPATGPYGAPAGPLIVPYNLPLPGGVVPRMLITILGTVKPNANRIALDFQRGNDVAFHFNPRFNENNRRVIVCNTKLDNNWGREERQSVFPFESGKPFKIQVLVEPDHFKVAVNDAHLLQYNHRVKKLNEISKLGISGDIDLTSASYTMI

| SMILES | Kd (galectin-3 [4]) [µM] | Kd (galectin-4C [5]) | Kd (galectin-1 [6]) [µM] | other results |
| --- | --- | --- | --- | --- |
| OC[C@H]1O[C@@H](c2cn(-c3ccccc3F)nn2)[C@H](O)[C@@H](O)[C@H]1O [Compound 1a] | – | – | – | Kd (galectin-1 [1]; [7]): 170 µM; Kd (galectin-4C [2]; [8]): 780 µM; Kd (galectin-3 [3]; [9]): 880 µM |
| OC[C@H]1O[C@@H](c2cn(-c3ccc(Cl)cc3)nn2)[C@H](O)[C@@H](O)[C@H]1O [Compound 1b] | – | – | – | Kd (galectin-1 [1]; [7]): 340 µM; Kd (galectin-4C [2]; [8]): 760 µM; Kd (galectin-3 [3]; [9]): 1700 µM |
| OC[C@H]1O[C@@H](c2cn(-c3cccc(Br)c3)nn2)[C@H](O)[C@@H](O)[C@H]1O [Compound 1d, 4-(1-Deoxy-β-D-galactopyranosyl)-1-(3-bromophenyl)-1H-1,2,3-triazole] | 1600 ± 30 | > 2000 µM | 1400 ± 95 | – |
| O=[N+]([O-])c1ccc(-n2cc([C@@H]3O[C@H](CO)[C@H](O)[C@H](O)[C@H]3O)nn2)cc1 [Compound 1i] | 1500 ± 67 | 910 ± 46 µM | 400 ± 5 | – |
| O=[N+]([O-])c1cccc(-n2cc([C@@H]3O[C@H](CO)[C@H](O)[C@H](O)[C@H]3O)nn2)c1 [Compound 1j] | 1000 ± 23 | > 2000 µM | 1800 ± 64 | – |
| OC[C@H]1O[C@@H](c2cn(-c3c(F)cccc3F)nn2)[C@H](O)[C@@H](O)[C@H]1O [Compound 1k] | 1200 ± 90 | > 2000 µM | 1300 ± 190 | – |
| OC[C@H]1O[C@@H](c2cn(-c3ccc(Br)cc3F)nn2)[C@H](O)[C@@H](O)[C@H]1O [Compound 1o] | 770 ± 89 | > 2000 µM | 310 ± 29 | – |
| OC[C@H]1O[C@@H](c2cn(-c3ccc(Cl)c(Cl)c3)nn2)[C@H](O)[C@@H](O)[C@H]1O [Compound 1p] | 660 ± 53 | 2300 µM and 2500 µM | 1300 ± 200 | – |
| Cc1ccc(-n2cc([C@@H]3O[C@H](CO)[C@H](O)[C@H](O)[C@H]3O)nn2)cc1Cl [Compound 1q] | 1400 ± 38 | > 2000 µM | 1200 ± 240 | – |
| OC[C@H]1O[C@@H](c2cn(-c3ccc(Cl)cn3)nn2)[C@H](O)[C@@H](O)[C@H]1O [Compound 1r] | 490 ± 6 | > 2000 µM | 650 ± 3 | – |
| OC[C@H]1O[C@@H](c2cn(-c3nccs3)nn2)[C@H](O)[C@@H](O)[C@H]1O [Compound 1s] | 910 ± 92 | > 2000 µM | 980 ± 7 | – |
| OC[C@H]1O[C@@H](c2cn(-c3ccc(-c4ccccc4)cc3)nn2)[C@H](O)[C@@H](O)[C@H]1O [Compound 1t] | 2000 ± 270 | 880 ± 82 µM | 970 ± 25 | – |
| CS(=O)(=O)c1ccc(-n2cc([C@@H]3O[C@H](CO)[C@H](O)[C@H](O)[C@H]3O)nn2)cc1 [Compound 1v] | 690 ± 70 | 2900 µM and 3500 µM | 780 ± 43 | – |
| CS(=O)(=O)c1cccc(-n2cc([C@@H]3O[C@H](CO)[C@H](O)[C@H](O)[C@H]3O)nn2)c1 [Compound 1w] | 1400 ± 70 | > 2000 µM | 1400 ± 85 | – |
| CC(=O)c1cccc(-n2cc([C@@H]3O[C@H](CO)[C@H](O)[C@H](O)[C@H]3O)nn2)c1 [Compound 1y] | 1000 ± 200 | 2000 µM and 2700 µM | 1300 ± 260 | – |
| OC[C@H]1O[C@@H](c2cn(-c3ccccn3)nn2)[C@H](O)[C@@H](O)[C@H]1O [Compound 1z] | 880 ± 100 | 2600 µM and 3100 µM | 150 ± 17 | – |
| OC[C@H]1O[C@@H](c2cnc(-c3cccc4ccccc34)o2)[C@H](O)[C@@H](O)[C@H]1O [Compound 2] | – | – | – | Kd (galectin-1 [1]; [10]): 490 µM; Kd (galectin-4C [2]; [8]): 550 µM; Kd (galectin-3 [3]; as printed in the running text, read-out: galectin-3 affinity): 90 µM |
| OC[C@H]1O[C@@H](Cn2cc(-c3ccc(F)cc3)nn2)[C@H](O)[C@@H](O)[C@H]1O [Compound 3] | – | – | – | Kd (galectin-1 [1]; [10]): 170 µM; Kd (galectin-4C [2]; [8]): 1200 µM; Kd (galectin-3 [3]; [11]): 710 µM |
| OC[C@H]1O[C@@H](Cn2cc(-c3ccc(C(F)(F)F)cc3)nn2)[C@H](O)[C@@H](O)[C@H]1O [Compound 4] | – | – | – | Kd (galectin-1 [1]; [10]): 240 µM; Kd (galectin-4C [2]; [8]): > 900 µM; Kd (galectin-3 [3]; [11]): 830 µM |
| OC[C@H]1O[C@@H](c2cn(-c3ccccc3F)nn2)[C@H](O)[C@@H](n2cc(-c3ccccc3)nn2)[C@H]1O [Compound 16a, 1,3-Dideoxy-1-(1-(2-fluorophenyl)-1H-1,2,3-triazol-4-yl)-3-(4-(phenyl)-1H-1,2,3-triazolyl)-β-D-galactopyranosyl] | 34 ± 1 | 18 ± 2 µM | 280 ± 39 | Kd (galectin-4N): 90 ± 17 µM |
| OC[C@H]1O[C@@H](c2cnc(-c3cccc4ccccc34)o2)[C@H](O)[C@@H](n2cc(-c3ccccc3)nn2)[C@H]1O [Compound 18] | – | 2.3 ± 0.4 µM | – | selectivity for galectin-4C over galectin-3 (galectin-4C [5]; ratio of Kd): 4 fold |
| CO[C@@H]1O[C@H](CO)[C@@H](O[C@@H]2O[C@H](CO)[C@H](O)[C@H](O)[C@H]2O)[C@H](O)[C@H]1O [β-Me Lac, methyl β-lactoside] | – | – | – | Kd (galectin-1 [1]; Table 1 reference saccharides, read-out: Dissociation constants, Galectin-1): 190 µM; Kd (galectin-4C [2]; Table 1 reference saccharides, read-out: Dissociation constants, Galectin-4C): 2900 µM; Kd (galectin-3 [3]; Table 1 reference saccharides, read-out: Dissociation constants, Galectin-3): 220 µM |

Continued, in another order:

| Kd (galectin-3 [4]) [µM] | Kd (galectin-4C [5]) | Kd (galectin-1 [6]) [µM] | SMILES | other results |
| --- | --- | --- | --- | --- |
| 1400 ± 340 | 1400 µM and 1500 µM | 140 ± 25 | OC[C@H]1O[C@@H](c2cn(-c3ccc(Br)cc3)nn2)[C@H](O)[C@@H](O)[C@H]1O [Compound 1c, 4-(1-Deoxy-β-D-galactopyranosyl)-1-(4-bromophenyl)-1H-1,2,3-triazole] | selectivity for galectin-1 over galectin-3 (galectin-1 [6]; ratio of Kd): tenfold |
| > 1000 | – | 460 ± 50 | OC[C@H]1O[C@@H](c2cn(-c3ccc(I)cc3)nn2)[C@H](O)[C@@H](O)[C@H]1O [Compound 1e] | – |
| > 1000 | – | 1300 ± 220 | OC[C@H]1O[C@@H](c2cn(-c3cccc(I)c3)nn2)[C@H](O)[C@@H](O)[C@H]1O [Compound 1f] | – |
| 1200 ± 31 | 2300 µM and 2600 µM | 1300 ± 320 | OC[C@H]1O[C@@H](c2cn(-c3ccc(C(F)(F)F)cc3)nn2)[C@H](O)[C@@H](O)[C@H]1O [Compound 1g] | – |
| 1300 ± 69 | 1500 µM and 2200 µM | 1500 ± 62 | OC[C@H]1O[C@@H](c2cn(-c3cccc(C(F)(F)F)c3)nn2)[C@H](O)[C@@H](O)[C@H]1O [Compound 1h] | – |
| 1200 ± 110 | > 2000 µM | 300 ± 20 | OC[C@H]1O[C@@H](c2cn(-c3ccc(Cl)cc3F)nn2)[C@H](O)[C@@H](O)[C@H]1O [Compound 1l] | – |
| 870 ± 140 | 1300 ± 260 µM | 580 ± 12 | OC[C@H]1O[C@@H](c2cn(-c3cc(Cl)ccc3F)nn2)[C@H](O)[C@@H](O)[C@H]1O [Compound 1m] | – |
| > 1000 | > 2000 µM | 1100 ± 48 | OC[C@H]1O[C@@H](c2cn(-c3cccc(Cl)c3F)nn2)[C@H](O)[C@@H](O)[C@H]1O [Compound 1n] | – |
| 1400 ± 160 | 2100 ± 490 µM | 2100 ± 73 | OC[C@H]1O[C@@H](c2cn(-c3ccc4c(c3)CCC4)nn2)[C@H](O)[C@@H](O)[C@H]1O [Compound 1u] | – |
| 1200 ± 83 | 1900 ± 550 µM | 970 ± 65 | CC(=O)c1ccc(-n2cc([C@@H]3O[C@H](CO)[C@H](O)[C@H](O)[C@H]3O)nn2)cc1 [Compound 1x] | – |
